The values that follow come from patent US9598426B2, “Organic compounds” (INTRA-CELLULAR THERAPIES, INC., priority 2013, dated 2017).

In general, minimal effective dose refers to the smallest amount tested that counted as effective.

One assay relates to C57BL/6 mice. Description: Haloperidol induced catalepsy model (bar grip test, step down latency). Conditions: haloperidol 3 mg/Kg PO, male C57BL/6 mice, compound PO. It is filed as in vivo, mouse. The source says: Haloperidol Induced Catalepsy Model
To evaluate the potential beneficial effects to motor defects present in schizophrenics treated with typical and atypical antipsychotic agents and in Parkinson's disease patients, the compounds of the invention may be tested in a reversal of catalepsy model in which motor freezing, or catalepsy, is induced by potent dopamine D2 receptor antagonists such as haloperidol or risperidone. The method uses the “bar grip test”, in which the front paws of the mouse are placed so as to grip a 3 mm-diameter, suspended wooden bar. A “step down latency” is measured by recording the time until the mouse removes its paws from the wooden bar to the floor surface. Catalepsy is a freezing of the musculature that prevents the mouse from moving off the bar. […]
A catalepsy score is recorded for each mouse at 2, 3, 4, and 6 hours after administration of drugs. […] The latency until the mouse steps both paws down from the bar to the floor surface (i.e., step down latency) is recorded up to 120 sec. […] If none of the 10 attempts are beyond 10 sec, the longest duration recorded is used as the catalepsy score. Otherwise, the initial cataleptic duration (>10 sec) is recorded during the 120 sec testing time. Mean step down latency is calculated for each treatment group.

The next assay deals with rats. The assay is described as follows: Novel Object Recognition (NOR) assay. The format is in vivo. Conditions: PO, administered to a rat 2 hours before T1 (acquisition); 24 h interval. From the text:
Novel Object Recognition Assay
To measure the cognition-enhancing effects of the compounds of the invention, the candidate compounds may be evaluated in a Novel Object Recognition (NOR) assay. This assay protocol is described in detail in Ennaceur et al., Behav. Brain Res. (1988) 31:47-59 and Prickaerts et al., Eur. J. Pharmacol. (1997) 337:125-136, the contents of each of which are incorporated by reference in their entirety. In this protocol, the rats are introduced to a chamber at time T1 and allowed to interrogate two identical “familiar objects” for six minutes. Twenty-four hours later, they are re-introduced to this chamber, where one of the familiar objects has been replaced with a novel object. The “discrimination index”, a measure of the time spent in close proximity to the novel over the familiar object, may then be measured. Since rodents will forget the original experiment at T1 within 4 hours, this test with a 24 h interval is a measure of strong cognitive enhancement.
This assay protocol can be modified in order to evaluate different phases of memory. There are three general phases of memory, namely, acquisition, consolidation and retrieval. In this modified protocol, the rats may be dosed with the candidate compound two hours before T1 and tested 24 h later without additional dosing. This is a test of the acquisition process. […]

For the compound `CC(=O)c1ccc(Cn2nc3c(c2Nc2ccc(F)cc2)C(=O)N(C)C2=NC(C)(C)CN23)cc1` [Example 1, 7,8-Dihydro-2-(4-acetylbenzyl)-3-(4-fluorophenylamino)-5,7,7-trimethyl-[2H]-imidazo-[1,2-a]pyrazolo[4,3-e]pyrimidin-4(5H)-one], the minimal effective dose with C57BL/6 mice and in the assay on rats was 0.1 mg/kg in each case.
